In patent publication US11702402B2, “Small molecules that block proteasome-associated ubiquitin receptor RPN13 function and uses thereof” (DANA-FARBER CANCER INSTITUTE, INC., priority 2018, dated 2023):
Entries after “also recorded” stand apart in the source; their conditions may differ.

Columns and labels:
[1] = tested on: human MM.1S MM tumors; assay: Human MM xenograft model; type: in vivo; details: for host survival / tumor growth: MM.1S-bearing mice, i.p., WL40 14.7 μM/kg, RA190 26.8 μM/kg; for host survival: twice weekly; for tumor growth: twice weekly for 18 days
Experimental: FIG. 23B are Kaplan-Meier plots which show survival of mice. […] The lysates were subjected to the immunoblot analysis using anti-polyubiquitin, anti-cleaved-caspase-8, or anti-β-actin Abs. FIG. 23D show tumor sections from the vehicle control, and WL40-treated mice that were stained with anti-polyubiquitin, Ki67, caspase-3 (cleaved form), and CD31 antibodies. Scale bar, 10 μm.
Animal model studies were performed as described previously.^32, 33, 36 Briefly, CB17 SCID mice were subcutaneously inoculated with 5.0×10^6 MM.1S cells. When tumors were measurable (100 mm^3) at approximately 3 weeks after MM-cell injection, mice (10 mice/group) were treated on a twice-weekly schedule with vehicle alone, WL40, or RA190. Mice were euthanized when tumor volume reached institutional limit (2000 mm^3). All animal experiments protocols were approved by and conformed to the relevant regulatory standards of the Institutional Animal Care and Use Committee at the Dana-Farber Cancer Institute.
Tumors were harvested from WL40-treated and control animals. Tumor sections were fixed and paraffin embedded for immunostaining to detect growth inhibition (Ki67), apoptosis (cleaved caspase-3), poly-ubiquitination (PolyU), and angiogenesis (CD31), as described previously.^32, 34 Tumor protein lysates from control vehicle- and WL40-treated mice were analyzed for caspase-8, poly-Ubiquitin or β-actin level using immunoblot analyses.
To fully understand the therapeutic potential of the RPN13 degrader, the in vivo efficacy of WL40 was evaluated using the human plasmacytoma xenograft mouse model.^3, 34 This model has been useful in validating novel anti-MM therapies bortezomib, carfilzomib, ixazomib, lenalidomide, and pomalidomide, which have translated to clinical trials and FDA approval.

[2] = tested on: multiple myeloma cell lines; assay: Viability of a panel of multiple myeloma cell lines; type: cell-based, Human
Text: FIGS. […] Wst-1 assay was used to test cell viability. FIGS. 6A and 6B show the effect of exemplary bifunctional compounds WL40 and WL44 on multiple myeloma cell lines.

[3] = target: RPN13 (Homo sapiens, UniProt Q16186); assay: Rpn13 immunoblot in MM.1S cells; type: cell-based; parameters: endogenous in cells; host or cells: MM.1S; MM.1S-CRBN KO; RPMI-8226; ANBL6.BR; details: MM.1S cells; for Rpn13 levels (immunoblot): 200 nM, 400 nM, 800 nM, 4, 8, 16 hours
Sequence of RPN13 (Q16186 whole entry): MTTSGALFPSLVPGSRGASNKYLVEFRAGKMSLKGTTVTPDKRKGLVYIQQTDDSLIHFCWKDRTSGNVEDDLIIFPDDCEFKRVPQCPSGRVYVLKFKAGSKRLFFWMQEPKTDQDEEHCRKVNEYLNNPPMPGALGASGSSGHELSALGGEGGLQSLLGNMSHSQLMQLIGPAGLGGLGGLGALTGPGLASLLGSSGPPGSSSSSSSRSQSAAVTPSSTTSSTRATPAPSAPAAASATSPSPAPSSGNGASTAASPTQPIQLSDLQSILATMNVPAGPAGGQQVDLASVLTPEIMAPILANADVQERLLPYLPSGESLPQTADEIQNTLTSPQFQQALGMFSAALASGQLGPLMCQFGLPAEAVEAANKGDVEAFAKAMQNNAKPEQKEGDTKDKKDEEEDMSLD
Experimental: Protein lysates were loaded on SDS-PAGE and transferred to PVDF membrane, and then immunoblotted with anti-alpha tubulin and Rpn13 antibodies.
In FIG. 17, MM.1S cells were treated with RA190 or JQRA at 200 nM and 400 nM, respectively, for 48 hours; and treated with RA190 or JQRA at 200 nM and 800 nM, respectively, for 48 hours. Protein lysates were loaded on SDS-PAGE and transferred to PVDF membrane, and then immunoblotted with anti-alpha tubulin and Rpn13 antibodies.
MM.1S cells, which were treated with DMSO control, bortezomib, or WL40 at indicated concentration for 3 hours; protein lysates were analyzed for different proteasome activities (CT-L, chymotrypsin-like; T-L, trypsin-like; C-L, caspase-like). FIG. 20B is a bar graph showing percent proteasome activity after normalization with DMSO control (mean±SD; n=3). Recombinant 20S proteasome was incubated with DMSO, bortezomib, or WL40 for 30 minutes, followed by assessment of the above-noted proteasome activities. FIG. 20C MM.1S cells were pretreated with exemplary proteasome inhibitor MG132 (10 μM) for 1 hour, followed by addition of WL40 (400 nM) for 8 hours. […] Total protein lysates were subjected to immunoblots for Rpn13 and α-tubulin. […] FIG. 20E ANBL6.BR cells were treated with WL40 (400 nM) or RA190 (500 nM) for 16 hours; protein lysates were subjected to immunoblot analysis using anti-Rpn13 or anti-β-actin Abs.
Cellular protein extracts were prepared using RIPA lysis buffer (50 mM Tris-HCl, 150 mM NaCl, 1% NP-40, 0.5% sodium deoxycholate, and 0.1% SDS). Protein lysates were subjected to immunoblotting using antibodies against poly ADP ribose polymerase (PARP, BD Bioscience Pharmingen, San Diego, Calif.), caspase 3, caspase 8, p53 (Santa Cruz Biotechnology), caspase 9, p-eIF2a (Abeam, Cambridge, Mass.), caspase 7, cyclin B1, CDC25C, CDCl2, p21, Rpn13, PERK, BIP, Calnexin, GFP, LC3A/B, α-tubulin (Cell Signaling, Beverly, Mass.), polyubiquitin (Enzo Life Sciences, Inc., Farmingdale, N.Y.), or β-actin (Sigma-Aldrich, St. Louis, Mo.).
Next, it was examined whether WL40 decreases cellular Rpn13 levels in MM cells. MM.1S cells were treated with various concentrations of WL40 (20 0 nM, 400 nM, or 800 nM) for 4 hours, 8 hours, and 16 hours; protein lysates were then analyzed for Rpn13 levels using immunoblot analysis. […] Decrease in Rpn13 levels was detectable as early as 8 hours after WL40 treatment and maximally (95%) reduced at 16 hours. Rpn13 protein level reduction was not observed with RA190 treatment (FIG. 19E, lower panel). There was no change in protein levels of tubulin, used as a loading control (FIG. 19E). To further corroborate the findings, MM.1S cells were treated with WL40, and then analyzed intracellular alterations in Rpn13 using flow cytometry.

[4] = tested on: UPR proteins (BIP, PERK, phosphorylated eIF2α, calnexin); assay: UPR protein immunoblot; type: cell-based, Human; details: ANBL6.BR (1 μM) and MM.1S (WL40 200 nM, RA190 300 nM)
[5] = tested on: MM.1S cells; assay: MM.1S cell viability (WST); details: for combination effect on viability (isobologram, CI): 48 hours, WST
Experimental: FIGS. 4A and 4B show multiple myeloma 1S (MM.1S) cells treated with RA190, WL40, and WL44 at the indicated concentrations for 24 hours. Wst-1 assay was used to test cell viability.
In FIG. 13B, multiple myeloma cells (MM.1S) were treated with RA190 or compound JQRA at the indicated concentrations for 72 hours, and the percentage of viable cells was measured.
Purified CD138^+ patient MM cells, which were treated with DMSO control or WL40 at indicated concentrations for 48 hours, followed by assessment for cell viability using CellTiter-Glo assay (mean±SD of triplicate cultures; p<0.001). […] Normal PBMCs from healthy donors were treated with DMSO control or WL40 at indicated concentrations for 48 hours, and then analyzed for cell viability using CellTiter-Glo assay (mean±SD of quadruplicate cultures). […] MM.1S cells were cultured with or without patient BMSCs in the presence or absence of WL40 for 48 hours, and cell proliferation was measured by WST assay (mean±SD; n=3; p<0.0001). […] MM.1S cells were cultured with or without patient pDCs in the presence or absence of WL40 for 48 hours, and cell proliferation was measured by WST assay (mean±SD; n=3; p<0.0001).

Row | Structure (SMILES) | host survival [1] | tumor growth [1] | tolerability ([1]; WL40-treated mice) | body weight loss ([1]; WL40-treated mice (data not shown)) | PolyUb proteins in harvested tumors ([1]; relative to tumors from control mice) | angiogenesis in harvested tumors (CD31) ([1]; tumor sections) | apoptosis in harvested tumors (cleaved caspase-3) ([1]; tumor sections) | proliferation in harvested tumors (Ki67) ([1]; tumor sections) | cell viability IC50 ([2]; multiple myeloma cell lines, 48 hours, Wst-1) | Rpn13 levels (immunoblot) [3] | time at which decrease in Rpn13 levels is detectable ([3]; after WL40 treatment) | maximal reduction of Rpn13 levels ([3]; at 16 hours) | induction of UPR signaling [4] | cell viability IC50 ([5]; 24 hours, Wst-1) | combination effect on viability (isobologram, CI) ([5]; WL40 plus bortezomib) | combination effect on viability (isobologram, CI) ([5]; WL40 plus lenalidomide) | combination effect on viability (isobologram, CI) ([5]; WL40 plus pomalidomide) | cytotoxicity (percentage of viable cells) ([2]; different multiple myeloma cell lines, 72 hours) | cytotoxicity (percentage of viable cells) ([5]; 72 hours)
1 | O=C1CCC(N2C(=O)c3cccc(NCCOCCOCCOCCC(=O)N[C@@H](Cc4ccccc4)C(=O)N4C/C(=C\c5ccc(Cl)c(Cl)c5)C(=O)/C(=C/c5ccc(Cl)c(Cl)c5)C4)c3C2=O)C(=O)N1 (some centres unmarked) [WL40] | prolongs host survival | inhibits xenografted human MM cell growth; also recorded: more potent in vivo anti-MM activity | well tolerated | no significant weight loss | increased accumulation of PolyUb proteins | blocks angiogenesis | induces apoptosis | decreases proliferation | high IC50 in several cell lines | degrade Rpn13; also recorded: marked decrease in Rpn13 levels | 8 h | 95% | rapid and robust induction of UPR proteins | lower IC50 compared to compound RA190 | synergistic anti-MM activity | synergistic anti-MM activity | synergistic anti-MM activity |  | 
2 | Cl.N[C@@H](Cc1ccccc1)C(=O)N1C/C(=C/c2ccc(Cl)c(Cl)c2)C(=O)/C(=C\c2ccc(Cl)c(Cl)c2)C1 [RA190, reference compound] | extends mice survival | attenuates MM tumor progression |  |  |  |  |  |  |  | not observed |  |  | delayed kinetics and to a lesser extent than Rpn13 degrader WL40 |  |  |  |  | stronger cytotoxicity than JQRA | stronger MM cytotoxicity compared to exemplary compound JQRA; also recorded: more robust MM cytotoxicity
